# Data: patent EP3587389A1 (INSTYTUT FARMACEUTYCZNY, priority 2018, dated 2020)
# Legend:
# [1] = DPPH free radical scavenging assay; details: for IC50: 30 min at room temperature, absorbance at 517 nm; for scavenging abilities (in words): DPPH assay
# Experimental: J Nat Prod. 2010 Feb 26; 73(2): 252-4. doi: 10.1021/np900519d.) with a modification. Briefly, different concentrations of the compounds (100 µl) were mixed with 900 µl of the 0.04 mg/ml methanolic solution of DPPH. The mixture was kept at room temperature for 30 min, and then the absorbance at 517 nm was measured. The half maximal inhibitory concentration (IC50) was used as an indicating measure of the scavenging activity.
# [2] = Oxidation inhibition of the o/w emulsion (lipid peroxidation, TBARS); details: for o/w emulsion (Inhibition of the oxidation (%)) / o/w emulsion (Inhibition of the oxidation), footnoted symbol: determined at 100 µM, flaxseed oil emulsion, oxidation induced with Mohr's salt, TBARS; for protection against the induced oxidation (in words): o/w emulsion model
# Experimental: The emulsion was prepared according to the method described in Zarnowski R. et al., The oil of Adenanthera pavonina L. seeds and its emulsions. Z Naturforsch C. 2004;59(5-6):321-326; Jaromin A. et al., Emulsions of oil from Adenanthera pavonina L. seeds and their protective effect Cell Mol Biol Lett 2006; 11(3): 438-448). Briefly, 15 mg of sorbitan sesquioleate was added to 50 mg of flaxseed oil and vigorously mixed for 20 min. Then, 2 ml of an aqueous phase consisting of 10 mM Tris-HCl buffer, pH 7.4, was added. The sample was further vortexed for 15 min. and sonicated (Sonics & Materials Inc., Newton, CT, USA) for 10 min. in a coldwater bath. Then, 20 µl of the 1:1 (v/v) buffer diluted emulsion, methanolic solution of each compound (final concentration 100 µM) and 10 mM Tris-HCl buffer, pH 7.4, were mixed and incubated at room temperature for 10 min. To induce oxidation, 100 µl of freshly prepared aqueous solution of ammonium iron(II) sulfate hexahydrate (Mohr's salt) (5 mM) was added (total volume of the sample was 1 ml) and the samples were incubated at room temperature for 15 min. Flaxseed oil emulsion without any compound addition was included as control. After the oxidation step, determination of the thiobarbituric acid reacting substances (TBARS) was performed (Buege J.A., Aust S.D., Microsomal lipid peroxidation. Methods Enzymol. 1978;52:302-310). 2 ml of the thiobarbituric acid (TBA) reagent (15% trichloroacetic acid, 0.25 N HCl and 0.5% TBA) was added to each sample, mixed and heated at 100°C for 30 min. After centrifugation at 13 000 rpm for 10 min, the absorbance of the supernatants was measured at 535 nm. The obtained values were used to calculate the % of the oxidation inhibition according to the following equation: Inhibition of the oxidation (%) = [1−(absorbance of the sample/absorbance of control)] × 100 [formula]
SMILES,IC50 [1],o/w emulsion (Inhibition of the oxidation (%)) [2],protection against the induced oxidation (in words) [2],scavenging abilities (in words) [1],"o/w emulsion (Inhibition of the oxidation), footnoted symbol [2]"
"COC(=O)/C=C/c1ccc(O)c(OC)c1 [Compound 14, 3-(4'-hydroxy-3-metoxyphenyl)-(E)-propenoic acid methyl ester]",58.9 µM,14.8 ± 2%,,,
"COC(=O)/C=C/c1cc(O)c(O)cc1O [Compound 13, 3-(2',4',5'-trihydroxyphenyl)-(E)-propenoic acid methyl ester]",53.3 µM,38.6 ± 2.3%,highest protection against the induced oxidation,,
"COC(=O)/C=C/c1cccc(O)c1 [Compound 10, 3-(3'-Hydroxyphenyl)-(E)-propenoic acid methyl ester]",> 5000 µM,18.4 ± 2.2%,,no scavenging abilities,
"COC(=O)/C=C/c1ccc(O)cc1 [Compound 8, 3-(4'-Hydroxyphenyl)-(E)-propenoic acid methyl ester]",> 5000 µM,22.7 ± 6.4%,,no scavenging abilities,
"COC(=O)/C=C/c1ccccc1O [Compound 9, 3-(2'-Hydroxyphenyl)-(E)-propenoic acid methyl ester]",> 5000 µM,2.6 ± 1.5%,,no scavenging abilities,
"COC(=O)/C=C/c1ccc(O)c(O)c1O [Compound 12, 3-(2',3',4'-trihydroxyphenyl)-(E)-propenoic acid methyl ester]",18.6 µM,55.5 ± 2%,highest protection against the induced oxidation,,
"CC(=O)/C=C/c1ccc(O)cc1 [Compound 16, 4-(4'-hydroxyphenyl)-3(E)-buten-2-one]",> 5000 µM,6.8 ± 4.4%,,no scavenging abilities,
"CC(=O)/C=C/c1ccccc1O [Compound 6, 4-(2'-hydroxyphenyl)-3(E)-buten-2-one]",> 5000 µM,,,no scavenging abilities,n.a.^b (no protection detected)
"CC(=O)/C=C/c1ccc(O)cc1O [Compound 17, 4-(2',4'-dihydroxyphenyl)-3(E)-buten-2-one]",688 µM,4.6 ± 1.3%,,,
"COc1cc(/C=C/C(C)=O)ccc1O [Compound 20, 4-(3'-methoxy-4'-hydroxyphenyl)-3(E)-buten-2-one]",61.8 µM,7.9 ± 2.1%,,,
"COC(=O)/C=C/c1ccc(O)cc1O [Compound 11, 3-(2',4'-dihydroxyphenyl)-(E)-propenoic acid methyl ester]",1020 µM,33.7 ± 6.5%,,,
"CC(=O)/C=C/c1cccc(O)c1 [Compound 15, 4-(3'-hydroxyphenyl)-3(E)-buten-2-one]",,,,no scavenging abilities,n.a.^b (no protection detected)
"O=C(O)/C=C/c1ccc(O)c(O)c1 [CA, Caffeic acid]",32.2 µM,26.1 ± 2.9%,,,
"CC(=O)/C=C/c1ccc(O)c(O)c1O [Compound 18, 4-(2',3',4'-trihydroxyphenyl)-3(E)-buten-2-one]",16.8 µM,28.6 ± 4%,highest protection against the induced oxidation,,
